# Experimental data from patent US12064759B2, “Microfluidic device with embedded cell culture chambers for high throughput biological assays” (NUtech Ventures, priority 2020, dated 2024).
# Counter-ions that a name gives are not always drawn.
# Columns and labels:
# A431 cells [1] = assay: Drug screening with live/dead assay on A431 cells in the MECT microfluidic device; format: cell-based
# Procedure: Taking advantage of the ability of the MECT device in generating uniform gradient within each chamber, a drug screening study with A431 cells administrated with control media and Dox was performed. Five conditions were studied: (1) Cells were stained with live/dead assay 24 hours after seeding without any media flow. This serves as the control; (2) cells were perfused by DMEM from both inlets for 12 hours before live/dead staining. This experiment examined the effect of shear stress on cell viability; (3, 4, 5) cells were perfused for 12 hours with DMEM/Dox (at a concentration of 30 μg/ml) from the bottom inlet and DMEM from the top inlet at flow rates of 0.05 μl/min (3), 0.1 μl/min (4) and 0.2 μl/min (5) for both inlets. Representative images for the studies of condition 1, 2, 4 and 5 are shown in FIGS. 6a-6d and of condition 3 in FIG. 7a. These studies were performed after the cells had been seeded within the microchambers for 24 hours. […] This provided clear evidence that cells within each chamber were viable and the device works properly. The effect of shear stress was then examined by perfusion of both inlets with a control media, Dulbecco's Modified Eagle Medium (DMEM) at a flow rate of 0.1 μl/min. Overall a slightly lower cell viability, at an average of 88%, was observed due to the shear induced cell death (FIG. 6b). In addition, the cell viability increased from the columns closest to the inlet of the device to the columns closes to the outlets, in agreement with COMSOL simulation where the shear stress is higher in the columns close to the inlets (FIG. 5).
# As discussed in microchannel fabrication, PDMS with ratio 1:10 were used to fabricate the microchannel and it was bonded to glass-slides and cured for 30 min at 80° C. inside the oven. Human fibronectin protein (Thermofisher) with the concentration of 50 μg/ml was used to coat the surface of the glass-slide as the bottom layer of the microchannels. Fibronectin was flowed into the microchannels by syringes and incubated for 2 hours. The fibronectin coated microchannel was washed with PBS. A mixture of the cell and DMEM was flowed into the microchannel by syringe pump at a flow rate (30 μl/min). The concentration of cell mixture was about 10 million cells per ml of media. Cell attachment and proliferation inside the microchannel was reached by placing the microchannel inside the incubator for 24 hours.
# Doxorubicin hydrochloride 98.0-102.0% (HPLC) with molecular weight of 579.98 was dissolved in water and was diluted in DMEM media. […] Cells were then counted with ImageJ cell counter module. Viability of the cells was calculated as the ratio of the live cells (stained green) over the total number of the cell, summation of the live (green) and dead (red) cells within each chamber.
# A431 cells [2] = assay: Multi-well (static culture) Dox study on A431 cells, live/dead assay; format: cell-based; settings: Dox 0, 6, 12, 18, 24 and 30 μg/ml; device flow rate 0.05 μl/min
# Procedure: Viability data with DMEM/Dox at the inlets at a flow rate of 0.05 μl/ml was compared with Dox treatment of A431 cells in static culture. A lower flow rate was chosen to minimize the effect of the shear stress on cell detachment and cell death. […] Cell viabilities data was collected by counting cells stained green and red from these chambers. According to simulation data, the concentration of Dox in the chambers 13 through 18 are: 0 μg/ml, 6 μg/ml, 12 μg/ml, 18 μg/ml, 24 μg/ml and 30 μg/ml. These dosages were applied in static culture and the viability data were collected. […] Doxorubicin hydrochloride 98.0-102.0% (HPLC) with molecular weight of 579.98 was dissolved in water and was diluted in DMEM media. For A431 cells, live-dead staining kit was diluted with PBS and was continuously flowed into the chambers with cells for 2 hours. Live-dead kit contains, Calcein-AM which stains green to the cytoskeleton of live cells and ethidium homodimer which stains red to the nuclei of dead cells. Cells were then counted with ImageJ cell counter module. Viability of the cells was calculated as the ratio of the live cells (stained green) over the total number of the cell, summation of the live (green) and dead (red) cells within each chamber.
smiles,measurement,setting,value
"COc1cccc2c1C(=O)c1c(O)c3c(c(O)c1C2=O)C[C@@](O)(C(=O)CO)C[C@@H]3O[C@H]1C[C@H](N)[C@H](O)[C@H](C)O1 [Dox, Doxorubicin hydrochloride]",overall cell viability in condition 5 (0.2 μl/min DMEM/Dox) versus condition 4 (0.1 μl/min DMEM/Dox),"A431 cells [1]; 12 h, Dox 30 μg/ml, higher shear stress at higher flow rate",clearly lower
same,cell viability from chambers #13 to #18,"A431 cells [1]; 12 h DMEM/Dox 30 μg/ml, flow rates 0.05, 0.1 and 0.2 μl/min (conditions 3 through 5)",overall decline
same,cell viability from top chamber to bottom chamber of each column (lowest to highest Dox concentration),"A431 cells [1]; 12 h perfusion, DMEM top inlet, DMEM/Dox 30 μg/ml bottom inlet, flow rates 0.1 and 0.2 μl/min",decreased significantly
same,effect of increasing doxorubicin concentrations within chambers on skin cancer cells,A431 cells [1]; doxorubicin flowed into chambers at different flow rate,induces cell death
same,cell viability in static culture compared with device chambers #13 through #18,A431 cells [2],reasonable agreement
